# Assay results: patent US6455045B1, “Immunogenic compounds with in particular an anti-cytokine effect, preparation process, pharmaceutical compositions and kits containing them” (priority 1991, dated 2002)
# No end group written: not given here.
# Tests used:
# [1] = system: HIV-1 env bands (gp160, gp120, gp41); test: Western blot (Abott HIV-1 detection kit) with serums of peptide-immunized mice; assay type: in vivo; details: 15 μg per injection days 0, 30, 60, day 70
# Description: Four batches of five mice were chosen to receive the peptides SI Nos. 1, 2, 6, 10 respectively.
# The peptides prepared as described in Example 2 were injected on days 0, 30, 60 in a quantity of 15 μg per injection. On day 70 the mice were sacrificed, their T-cells were isolated (spleen and ganglia) and their serum was stored.
# [2] = system: T-cells originating from fresh human blood; assay type: cell-based
Substance,Western blot bands showing a signal [1],activation of T-cells (incorporation of labelled thymidine) [2]
QLLLNGSLAEEE [SI No. 10],gp60 and gp120 bands showed a signal,low activation according to a dose-effect curve
His-Glu-Asp-Ile-Ile-Ser-Leu-Trp-Asp-Gln-Ser-Leu-Lys [SI No. 6],gp60 and gp120 bands showed a signal,low activation according to a dose-effect curve
"SI No. 1: peptide SI No. 1, a or b form not stated; prepared in proteosomes as in Example 2 (probably 1b); HIV-1 gag P7 region (IARNCRAPRKKG)",gp60 and gp120 bands showed a signal,
Cys-Ser-Ala-Thr-Glu-Lys-Leu-Trp-Val-Thr-Val-Tyr-Tyr [SI No. 7],,low activation according to a dose-effect curve
"SI No. 2: peptide SI No. 2, a or b form not stated; prepared in proteosomes as in Example 2 (probably 2b); HIV-1 gp41 region 735-753 (DRPEGIEEEGGERDRDRS)",gp160 and gp41,
Cys-Gln-His-Leu-Leu-Gln-Leu-Thr-Val-Trp-Gly-Ile-Lys-Glu or Gln-Leu-Glu Gln-Ala-Arg-Ile-Leu-Ala-Val-Glu-Arg-Tyr-Leu-Lys-Asp-Gln [SI No. 5],,low activation according to a dose-effect curve
